Experimental data: ChEMBL document CHEMBL2346526, “Synthesis and antiproliferative activity of C-homo-lactam derivatives of 7-deoxycholic acid” (Bioorg Med Chem Lett, 2013)

Tests used:
Format in all cases: functional, cell-based
[1] = Cytotoxicity against GNE 2 cells (unknown origin) after 72 hrs by MTT assay
[2] = Cytotoxicity against human Tu 686 cells after 72 hrs by MTT assay
HeLa = test: Cytotoxicity against human HeLa cells after 72 hrs by MTT assay
[3] = Cytotoxicity against human SMMC-7404 cells after 72 hrs by MTT assay
[4] = Cytotoxicity against human SPC-A cells after 72 hrs by MTT assay
[5] = Cytotoxicity against human MGC7901 cells after 72 hrs by MTT assay
[6] = Homo sapiens, HeLa, 72 h, read-out: IC50

Structure (SMILES) | IC50 [1] [µM] | IC50 [2] [µM] | IC50 (HeLa; [6]) [µM] | IC50 [3] [µM] | IC50 [4] [µM] | IC50 [5] [µM] | IC50 (HeLa; hela) [µM]
COC(=O)CC[C@@H](C)[C@H]1CC[C@H]2[C@@H]3CC[C@@H]4C[C@@H](OC(C)=O)CC[C@]4(C)[C@H]3C/C(=N\O)[C@]12C | 17.3 | 74.3 | 14.7 | 15.6 | 13.5 | 19.8 | 
COC(=O)CC[C@@H](C)[C@H]1CC[C@H]2[C@@H]3CC[C@@H]4C[C@@H](OC(C)=O)CC[C@]4(C)[C@H]3CC(=O)N[C@]12C | > 200 | 65.9 | 15.9 | 62.3 | > 200 | 80.7 | 
COC(=O)CC[C@@H](C)[C@H]1CC[C@H]2[C@@H]3CC[C@@H]4C[C@@H](O)CC[C@]4(C)[C@H]3CC(=O)N[C@]12C | 168 | > 200 | 19 | > 200 | > 200 | > 200 | 
C[C@H](CCC(=O)O)[C@H]1CC[C@H]2[C@@H]3CC[C@@H]4C[C@@H](O)CC[C@]4(C)[C@H]3CC(=O)N[C@]12C | 168 | 44.3 | 19.2 | > 200 | > 200 | > 200 | 
C[C@H](CCC(=O)O)[C@H]1CC[C@H]2[C@@H]3CC[C@@H]4CC(=O)CC[C@]4(C)[C@H]3CC(=O)N[C@]12C | > 200 | 16.7 |  | > 200 | > 200 | > 200 | > 200
CC(=O)O[C@H]1CC[C@@]2(C)[C@H](CC[C@@H]3[C@@H]2CC(=O)N[C@]2(C)[C@@H]([C@H](C)CCC(=O)O)CC[C@@H]32)C1 | 134 | 19.8 |  | 99.3 | 185 | 185 | > 200
CC(=O)O[C@H]1CC[C@@]2(C)[C@H](CC[C@@H]3[C@@H]2CC(=O)N[C@]2(C)[C@@H]([C@H](C)CCC(=O)N(C)C)CC[C@@H]32)C1 | 151 | 74.5 |  | 168 | 130 | 88.5 | > 200
